The text below walks through data of article PMC6591251, “Discovery of potent necroptosis inhibitors targeting RIPK1 kinase activity for the treatment of inflammatory disorder and cancer metastasis” (Cell Death & Disease, 2019).

Structures are written as SMILES. ≈ marks a conversion by molar mass, not a printed value. Where two headings read alike, the source gives them in different places.

The subject of one data set is L929 cells. The experiment in a line: TNF-induced necroptosis, cell viability by ATP levels. The conditions noted are these: Mus musculus, L929, 24 h. It is filed as cell-based. The procedure:
Necroptosis is tightly regulated by RIP kinases including RIPK1 and RIPK3. To develop new necroptosis inhibitors, we screened a small-molecule library of around 240 potential kinase inhibitors that were designed with novel structures to affect the ATP-binding pocket of protein kinases. Human colon cancer HT-29 cells were treated with these compounds for […], followed by treatment with necroptotic stimuli (TNFα, Smac mimetic, and z-VAD) that are known to activate TNF-mediated necroptosis. After 48 h, cell viability was analyzed by monitoring ATP levels.
Fig. 1 PK6 efficiently blocks TNF-α induced necroptosis in both human and mouse cells. a HT-29 cells cultured in 96-well plates were pretreated with the indicated compounds (10 μM) from a library consisting of ~240 compounds that we designed with novel structures for 1 h and subsequently treated with 40 ng/ml TNF-α (T), 100 nM Smac mimetic (S), and the caspase inhibitor 20 μM z-VAD(Z) for 48 h. Cell viability was assessed by measuring ATP levels. Data are represented as the mean ± standard deviation of duplicates. b Chemical structure of PK6. c Dose response curve and EC50 ± SD value for PK6 in TNF-α induced necroptosis in HT-29 cells. Cells were pretreated with indicated concentrations of PK6 for 1 h prior to the treatment with T (40 ng/ml), S (100 nM), and Z (20 μM) for 48 h. Cell viability was assessed by measuring ATP levels. d U937 cells were pretreated with indicated concentrations of PK6 for 1 h followed by the treatment with T (40 ng/ml), S (100 nM), and Z (20 μM) for 24 h. e MEF cells were pretreated with indicated concentrations of PK6 for 1 h followed by the treatment with T (40 ng/ml), S (100 nM), and Z (20 μM) for 24 h. f L929 cells were pretreated with indicated concentrations of PK6 for 1 h prior to the treatment with S (100 nM) and Z (20 μM) for 24 h.
Fig. 2 Chemical optimization of PK6 leads to improvements in anti-necroptotic activity. a, b The effects of the indicated compounds on cell viability were examined in HT-29 cells (a) and L929 cells (b). HT-29 cells were treated as indicate for 48 h and L929 cells for 24 h. Cell viability was assessed by measuring ATP levels. Data are represented as the mean ± standard deviation of triplicates. c Structure and EC50 ± SD value of each compound are shown in the table. EC50 values are the average of at least two independent determinations. d Lead optimization of PK6 TEXT PRINTED IN THE PICTURE: (c) PK6: EC50(nM) HT-29: 1200±53; EC50(nM) L929: 760±26 | (c) PK67: EC50(nM) HT-29: 250±6.3; EC50(nM) L929: 130±6.8 | (c) PK81: EC50(nM) HT-29: 120±7.6; EC50(nM) L929: 20±0.98 | (c) PK84: EC50(nM) HT-29: 97±6.7; EC50(nM) L929: 45±2.1 | (c) PK93: EC50(nM) HT-29: 130±36; EC50(nM) L929: 30±7.4 | (c) PK86: EC50(nM) HT-29: 73±3.9; EC50(nM) L929: 15±1.0 | (c) PK68: EC50(nM) HT-29: 23±1.4; EC50(nM) L929: 13±0.85
The cell viability was analyzed by using the CellTiter-Glo Luminescent Cell Viability Assay kit following the manufacturer’s instructions (Promega). Luminescence was measured with SpectraMax i3x (Molecular Devices).

The test system of data set [1] is TNF-induced systemic inflammatory response syndrome. The experiment in a line: TNF-induced SIRS mouse model. In kind it is in vivo, C57BL/6 mice. The conditions noted are these: for protection against TNFα-induced lethal shock: PK6 30 mg/kg, PK68 1 mg/kg ip, 15 min before TNF-α 6 μg per mouse. As to the method:
Necroptosis is involved in a variety of inflammatory disorders such as TNF-induced SIRS[11],[12]. We therefore evaluated the therapeutic effect of PK68 in a mouse model of TNF-induced SIRS. C57BL/6 mice were treated with vehicle, PK6, or PK68 for 15 min prior to intravenous injection of mouse TNFα (6 µg TNFα per mouse). […] SIRS is associated with systemic release of proinflammatory cytokines and tissue injuries. […] Moreover, TNF-induced damage of the colon was attenuated by the treatment of PK68 (Fig. 7d).
Fig. 7 PK68 ameliorates TNF-induced systemic inflammatory response syndrome. C57BL/6 mice (n = 11) were injected with vehicle, PK6 (30 mg/kg), or PK68 (1 mg/kg) via intraperitoneal injection for 15 min, followed by the tail intravenous injection of mouse TNF-α (6 μg per mouse). a, b The survival rate (a) and body temperature loss (b) were monitored. c, d C57BL/6 mice (n = 5) were injected with vehicle or PK68 (1 mg/kg) for 15 min prior to the injection of mouse TNF-α. The mice were sacrificed 4 h after TNF-α administration, the serum concentration of IL-1β was measured by ELISA kits (c), and histology of the colon tissue was analyzed by H&E staining and the representative images are shown (d). The serum or colon tissue from C57BL/6 mice was used as the control (Normal). Magnification: ×100 (left) and ×200 (right). Data represent mean value ± standard deviation. *P < 0.05. **P < 0.01. ***P < 0.001
PK6 and PK68 were diluted into sterile PBS. C57BL/6 mice were pretreated with vehicle, PK6 (30 mg/kg), or PK68 (1 mg/kg) via intraperitoneal injection for around 15 min and then challenged with mouse TNF-α (6 μg per mouse) via tail intravenous injection. Mice mortality was continuously monitored till 72 h after TNF-α administration. The serum and colon tissue are collected at 4 h post TNF-α challenge.

A short description of data set [2]: Solubility in FaSSIF, LC/MS/MS. To be noted: for solubility: pH= 6.5 FaSSIF, LC/MS/MS, duplicates. It is filed as physicochemical. The procedure: ^a Calculated by ACDlabs. ^b Data are measured duplicates in pH= 6.5 FaSSIF using LC/MS/MS. ^c Data are determined three times by SMP10 melting point apparatus.

In the case of `CC(=O)Nc1nc2ccc(-c3cnc(Cl)c(NC(=O)Cc4ccccc4)c3)cc2s1` [PK6, N-(5-(2-acetamidobenzo[d]thiazol-6-yl)-2-chloropyridin-3-yl)-2-phenylacetamide], the EC50 in the data set on L929 cells (S 100 nM and Z 20 μM, read-out: EC50, TNF-induced necroptosis) was about 760 nM. In data set [1], the “protection against TNFα-induced lethal shock” value is listed as “effective protection”. Moreover, in data set [2], the “solubility (in words)” value was “poor” and the solubility worked out at 0.09 µg/mL (≈ 0.206 µM).
For the compound `CC(=O)Nc1nc2ccc(-c3cnc(C)c(NC(=O)OC4CCCCC4)c3)cc2s1` [PK68, cyclohexyl (5-(2-acetamidobenzo[d]thiazol-6-yl)-2-methylpyridin-3-yl)carbamate], the EC50 with L929 cells (read-out: EC50(nM) L929) was found to be 13 nM. Moreover, the TNFα-induced temperature loss result in data set [1] (1 mg/kg ip) was “strongly reduced”. Besides, in data set [1] (1 mg/kg, 4 h after TNF-α), the “TNF-induced damage of the colon” value was “attenuated”. Besides, in data set [1] (1 mg/kg, serum 4 h after TNF-α), the “production of proinflammatory cytokines including IL-1β” value was “significantly ameliorated”. Besides, the “protection against TNFα-induced lethal shock” value in data set [1] is “effective protection”. Besides, in data set [2], the concentration in solution (solubility) came to 0.56 µg/mL (≈ 1.32 µM).
